Measured values taken from ChEMBL document CHEMBL1148857, “In vitro and in vivo profile of 5-[(4'-trifluoromethyl-biphenyl-2-carbonyl)-amino]-1H-indole-2-carboxylic acid benzylmethyl carbamoylamide (dirlotapide), a novel potent MTP inhibitor for obesity” (Bioorg Med Chem Lett, 2007).
The source made the active and inactive calls. The calls are words filed in the database; no cut-off is given here.

How the values were obtained:
[1] = Half life in rat at 30 mg/kg, po; assay type: ADME, organism-based; parameters: dose 30 mg/kg, route oral; settings: in vivo
[2] = Plasma clearance in rat at 0.3 mg/kg, iv; assay type: ADME, organism-based; parameters: dose 0.3 mg/kg, route intravenous
[3] = AUC (0 to t) in monkey at 0.5 mg/kg, iv; assay type: ADME, organism-based, Macaca mulatta; parameters: dose 0.5 mg/kg, route intravenous; settings: rhesus monkey, plasma
[4] = Bioavailability in rat at 30 mg/kg, po; assay type: ADME, organism-based; settings: in vivo
[5] = biological target: Muscarinic acetylcholine receptor M4 (Homo sapiens) (UniProt P08173); experiment: Inhibition of muscarinic M4 receptor at 1 uM
[6] = Plasma clearance in Beagle dog at 1 mg/kg, iv; assay type: ADME, organism-based, Canis lupus familiaris; parameters: dose 1 mg/kg, route intravenous
[7] = Half life in Beagle dog at 1 mg/kg, iv; assay type: ADME, organism-based, Canis lupus familiaris; parameters: dose 1 mg/kg, route intravenous; settings: in vivo
[8] = biological target: Kappa-type opioid receptor (Homo sapiens) (UniProt P41145); experiment: Inhibition of kappa opioid receptor at 1 uM
Sequence of Kappa-type opioid receptor (Homo sapiens) (P41145 whole entry): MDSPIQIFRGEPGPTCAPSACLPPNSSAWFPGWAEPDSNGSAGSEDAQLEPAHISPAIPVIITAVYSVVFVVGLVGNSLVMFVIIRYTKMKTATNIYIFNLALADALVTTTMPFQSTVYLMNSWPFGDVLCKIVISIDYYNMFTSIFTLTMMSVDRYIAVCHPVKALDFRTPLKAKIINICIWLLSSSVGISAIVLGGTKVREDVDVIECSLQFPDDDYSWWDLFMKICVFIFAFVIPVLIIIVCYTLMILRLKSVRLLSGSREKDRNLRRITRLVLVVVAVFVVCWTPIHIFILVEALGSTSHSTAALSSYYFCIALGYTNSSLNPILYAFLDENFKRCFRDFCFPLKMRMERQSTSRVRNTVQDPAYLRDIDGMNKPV

[9] = biological target: Beta-2 adrenergic receptor (Homo sapiens) (UniProt P07550); experiment: Inhibition of adrenergic b2 receptor at 1 uM
[10] = Intrinsic clearance in rat microsomes; assay type: ADME, Microsome
[11] = Half life in rat at 0.3 mg/kg, iv; assay type: ADME, organism-based; parameters: dose 0.3 mg/kg, route intravenous; settings: in vivo
Homo sapiens [12] = species on record: Homo sapiens; experiment: Inhibition of AMPA receptor at 1 uM
[13] = biological target: 5-hydroxytryptamine receptor 1A (Homo sapiens) (UniProt P08908); experiment: Inhibition of 5HT1A receptor at 1 uM
Sequence of 5-hydroxytryptamine receptor 1A (Homo sapiens) (P08908 whole entry): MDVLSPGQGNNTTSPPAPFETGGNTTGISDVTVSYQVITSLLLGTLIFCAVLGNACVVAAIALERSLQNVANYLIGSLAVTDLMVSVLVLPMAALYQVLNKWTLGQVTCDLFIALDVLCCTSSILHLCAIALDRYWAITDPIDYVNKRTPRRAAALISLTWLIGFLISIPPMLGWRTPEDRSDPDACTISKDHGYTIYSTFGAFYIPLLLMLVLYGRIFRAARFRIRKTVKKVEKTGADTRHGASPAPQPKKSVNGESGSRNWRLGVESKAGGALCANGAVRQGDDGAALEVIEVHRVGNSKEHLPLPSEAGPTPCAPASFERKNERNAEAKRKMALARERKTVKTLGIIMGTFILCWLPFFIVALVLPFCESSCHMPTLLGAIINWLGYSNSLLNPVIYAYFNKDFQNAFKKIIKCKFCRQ

[14] = biological target: Microsomal triglyceride transfer protein large subunit (Homo sapiens, UniProt P55157); experiment: Inhibition of MTP assessed as inhibition of apoB secretion from human HepG2 cells; assay type: cell-based
Sequence of Microsomal triglyceride transfer protein large subunit (P55157 whole entry): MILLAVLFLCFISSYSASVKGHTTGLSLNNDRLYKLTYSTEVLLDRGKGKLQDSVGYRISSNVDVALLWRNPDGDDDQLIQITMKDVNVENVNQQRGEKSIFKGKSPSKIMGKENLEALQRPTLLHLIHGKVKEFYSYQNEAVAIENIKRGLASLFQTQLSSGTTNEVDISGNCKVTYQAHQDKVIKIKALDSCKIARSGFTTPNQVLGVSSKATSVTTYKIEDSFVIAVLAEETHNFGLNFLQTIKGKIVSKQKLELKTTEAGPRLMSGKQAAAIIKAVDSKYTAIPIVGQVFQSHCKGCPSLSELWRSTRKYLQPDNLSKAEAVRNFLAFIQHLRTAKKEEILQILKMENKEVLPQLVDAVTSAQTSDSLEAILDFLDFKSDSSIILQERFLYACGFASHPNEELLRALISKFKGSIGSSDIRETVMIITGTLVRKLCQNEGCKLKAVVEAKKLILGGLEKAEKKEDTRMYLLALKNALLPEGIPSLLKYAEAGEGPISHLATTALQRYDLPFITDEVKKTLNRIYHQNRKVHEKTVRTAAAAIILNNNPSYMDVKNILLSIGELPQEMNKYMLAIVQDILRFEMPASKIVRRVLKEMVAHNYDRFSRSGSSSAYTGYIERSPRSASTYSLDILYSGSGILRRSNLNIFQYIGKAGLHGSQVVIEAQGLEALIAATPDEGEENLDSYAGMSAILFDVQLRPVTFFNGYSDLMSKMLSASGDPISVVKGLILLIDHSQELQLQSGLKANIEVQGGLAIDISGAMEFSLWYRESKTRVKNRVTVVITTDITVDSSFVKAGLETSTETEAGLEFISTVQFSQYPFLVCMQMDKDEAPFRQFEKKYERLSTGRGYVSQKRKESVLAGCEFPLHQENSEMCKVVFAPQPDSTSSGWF

[15] = biological target: Adrenergic receptor alpha-1 (Homo sapiens) (UniProt P35348+P25100+P35368); experiment: Inhibition of adrenergic a1 receptor at 1 uM; assay type: protein assay
[16] = biological target: Histamine H1 receptor (Homo sapiens) (UniProt P35367); experiment: Inhibition of histamine H1 receptor at 1 uM
Sequence of Histamine H1 receptor (Homo sapiens) (P35367 whole entry): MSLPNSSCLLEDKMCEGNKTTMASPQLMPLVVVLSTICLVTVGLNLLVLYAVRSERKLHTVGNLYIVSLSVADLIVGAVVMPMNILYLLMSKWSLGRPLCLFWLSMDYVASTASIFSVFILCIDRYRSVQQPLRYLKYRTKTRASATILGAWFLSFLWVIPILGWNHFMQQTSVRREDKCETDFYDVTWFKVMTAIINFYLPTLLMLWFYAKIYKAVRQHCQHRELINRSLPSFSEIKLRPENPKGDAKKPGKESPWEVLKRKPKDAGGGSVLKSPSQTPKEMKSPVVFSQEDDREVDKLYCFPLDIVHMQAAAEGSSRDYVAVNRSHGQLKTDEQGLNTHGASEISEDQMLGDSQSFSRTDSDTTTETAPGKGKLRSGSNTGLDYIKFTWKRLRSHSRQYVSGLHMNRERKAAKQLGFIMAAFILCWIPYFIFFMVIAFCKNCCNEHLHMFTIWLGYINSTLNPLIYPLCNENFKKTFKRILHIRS

[17] = Volume of distribution at steady state in Beagle dog at 0.5 mg/kg, iv; assay type: ADME, organism-based, Canis lupus familiaris; parameters: dose 0.5 mg/kg, route intravenous; settings: in vivo, read-out: Vdss
[18] = biological target: D(2) dopamine receptor (Homo sapiens) (UniProt P14416); experiment: Inhibition of dopamine D2 receptor at 1 uM
Sequence of D(2) dopamine receptor (Homo sapiens) (P14416 whole entry): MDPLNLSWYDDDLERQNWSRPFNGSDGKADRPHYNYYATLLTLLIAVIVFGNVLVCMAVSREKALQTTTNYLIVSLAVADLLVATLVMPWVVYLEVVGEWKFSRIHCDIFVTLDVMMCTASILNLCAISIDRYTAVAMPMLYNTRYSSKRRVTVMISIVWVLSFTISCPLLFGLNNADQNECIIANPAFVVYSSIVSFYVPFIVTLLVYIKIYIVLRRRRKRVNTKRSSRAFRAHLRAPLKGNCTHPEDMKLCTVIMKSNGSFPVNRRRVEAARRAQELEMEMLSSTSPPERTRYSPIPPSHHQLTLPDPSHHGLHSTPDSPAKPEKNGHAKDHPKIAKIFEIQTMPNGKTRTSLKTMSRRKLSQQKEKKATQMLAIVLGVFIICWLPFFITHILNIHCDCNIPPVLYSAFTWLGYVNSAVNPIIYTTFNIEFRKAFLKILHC

Homo sapiens [19] = species on record: Homo sapiens; experiment: Inhibition of GABA receptor at 1 uM
[20] = AUC (0 to infinity) in Beagle dog at 5 mg/kg, po; assay type: ADME, organism-based, Canis lupus familiaris; parameters: time infinity, dose 5 mg/kg, route oral; settings: plasma
[21] = Ratio of drug level in blood to plasma in human; assay type: ADME, cell-free; settings: blood and plasma, read-out: BPR
[22] = Cmax in rat at 300 mg/kg, po; assay type: ADME, organism-based; parameters: dose 300 mg/kg, route oral; settings: in vivo
[23] = AUC (0 to infinity) in portal cannulated Beagle dog at 1 mg/kg, po; assay type: ADME, organism-based, Canis lupus familiaris; parameters: time infinity, dose 1 mg/kg, route oral; settings: plasma
[24] = biological target: Muscarinic acetylcholine receptor M3 (Homo sapiens) (UniProt P20309); experiment: Inhibition of muscarinic M3 receptor at 1 uM
[25] = biological target: Mu-type opioid receptor (Homo sapiens) (UniProt P35372); experiment: Inhibition of mu opioid receptor at 1 uM
Sequence of Mu-type opioid receptor (Homo sapiens) (P35372 whole entry): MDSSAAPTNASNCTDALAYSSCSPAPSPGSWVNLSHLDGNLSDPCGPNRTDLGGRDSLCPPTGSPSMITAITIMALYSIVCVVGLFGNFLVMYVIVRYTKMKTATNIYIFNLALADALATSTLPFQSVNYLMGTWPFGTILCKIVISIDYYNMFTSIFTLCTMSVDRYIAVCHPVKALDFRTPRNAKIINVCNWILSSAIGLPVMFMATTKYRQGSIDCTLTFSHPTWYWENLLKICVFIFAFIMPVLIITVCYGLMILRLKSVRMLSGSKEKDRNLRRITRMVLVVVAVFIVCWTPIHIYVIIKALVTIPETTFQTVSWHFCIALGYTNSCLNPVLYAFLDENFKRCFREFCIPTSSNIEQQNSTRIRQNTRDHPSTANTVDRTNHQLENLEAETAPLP

Homo sapiens [26] = species on record: Homo sapiens; experiment: Inhibition of N-type calcium channel at 1 uM
[27] = Half life in rat at 3 mg/kg, po; assay type: ADME, organism-based; parameters: dose 3 mg/kg, route oral; settings: in vivo
[28] = biological target: Melanocortin receptor 4 (Homo sapiens) (UniProt P32245); experiment: Inhibition of melanocortin MC4 receptor at 1 uM
Sequence of Melanocortin receptor 4 (Homo sapiens) (P32245 whole entry): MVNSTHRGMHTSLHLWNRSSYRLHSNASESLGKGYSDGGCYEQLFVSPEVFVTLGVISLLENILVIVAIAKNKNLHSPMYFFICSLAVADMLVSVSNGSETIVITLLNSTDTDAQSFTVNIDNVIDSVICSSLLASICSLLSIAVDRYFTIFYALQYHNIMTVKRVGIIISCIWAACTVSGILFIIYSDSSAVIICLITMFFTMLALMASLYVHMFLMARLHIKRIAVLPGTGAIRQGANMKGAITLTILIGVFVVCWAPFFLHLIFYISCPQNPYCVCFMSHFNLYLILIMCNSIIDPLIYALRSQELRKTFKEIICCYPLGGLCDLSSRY

[29] = Plasma clearance in rat at 1 mg/kg, iv; assay type: ADME, organism-based; parameters: dose 1 mg/kg, route intravenous
Plasma = experiment: Percentage unbound ligand in monkey blood at 0.2 uM; assay type: ADME, cell-free, Macaca mulatta; settings: rhesus monkey
[30] = Half life in monkey at 0.5 mg/kg, iv; assay type: ADME, organism-based, Macaca mulatta; parameters: dose 0.5 mg/kg, route intravenous; settings: rhesus monkey, in vivo
[31] = AUC (0 to infinity) in male rat at 30 mg/kg, po; assay type: ADME, organism-based; parameters: time infinity, dose 30 mg/kg, route oral; settings: plasma
[32] = Inhibition of MTP assessed as inhibition of apoB secretion from canine hepatocytes; assay type: cell-based; settings: Canis lupus familiaris, Hepatocyte
[33] = Intrinsic clearance in human microsomes; assay type: ADME, Microsome
[34] = Volume of distribution at steady state in monkey at 0.5 mg/kg, iv; assay type: ADME, organism-based, Macaca mulatta; parameters: dose 0.5 mg/kg, route intravenous; settings: rhesus monkey, in vivo, read-out: Vdss
Cytochrome P450 1A2 = Cytochrome P450 1A2 (Homo sapiens, UniProt P05177); experiment: Inhibition of CYP1A2; assay type: ADME
Sequence of Cytochrome P450 1A2 (P05177 whole entry): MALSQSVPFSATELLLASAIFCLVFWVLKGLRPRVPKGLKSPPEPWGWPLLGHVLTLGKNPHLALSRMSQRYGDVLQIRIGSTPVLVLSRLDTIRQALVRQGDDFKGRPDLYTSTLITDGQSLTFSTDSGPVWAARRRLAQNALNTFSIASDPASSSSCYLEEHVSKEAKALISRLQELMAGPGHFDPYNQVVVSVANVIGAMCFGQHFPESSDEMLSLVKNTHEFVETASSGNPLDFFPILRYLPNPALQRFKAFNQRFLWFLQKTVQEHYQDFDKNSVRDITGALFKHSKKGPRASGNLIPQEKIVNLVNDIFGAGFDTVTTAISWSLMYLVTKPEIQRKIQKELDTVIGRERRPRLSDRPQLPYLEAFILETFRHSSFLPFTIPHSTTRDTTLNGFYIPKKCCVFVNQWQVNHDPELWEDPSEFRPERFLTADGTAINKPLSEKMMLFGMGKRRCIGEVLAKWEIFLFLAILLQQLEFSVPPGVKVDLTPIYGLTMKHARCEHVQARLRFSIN

Canis familiaris [35] = experiment: Decrease in cholesterol level in obese Beagle dog at 0.39 mg/kg, po after 3 months; assay type: functional, Canis lupus familiaris; parameters: scale not given: the % may be the effect or the level left
[36] = Half life in portal cannulated Beagle dog at 1 mg/kg, iv; assay type: ADME, organism-based, Canis lupus familiaris; parameters: dose 1 mg/kg, route intravenous; settings: in vivo
[37] = Half life in portal cannulated Beagle dog at 1 mg/kg, po; assay type: ADME, organism-based, Canis lupus familiaris; parameters: dose 1 mg/kg, route oral; settings: in vivo
[38] = Cmax in rat at 3 mg/kg, po; assay type: ADME, organism-based; parameters: dose 3 mg/kg, route oral; settings: in vivo
[39] = AUC (0 to infinity) in Beagle dog at 1 mg/kg, iv; assay type: ADME, organism-based, Canis lupus familiaris; parameters: time infinity, dose 1 mg/kg, route intravenous; settings: plasma
Homo sapiens [40] = species on record: Homo sapiens; experiment: Inhibition of tachykinin receptor at 1 uM
[41] = Intrinsic clearance in monkey microsomes; assay type: ADME, Macaca mulatta, Microsome; settings: rhesus monkey
[42] = Cmax in portal cannulated Beagle dog at 1 mg/kg, po; assay type: ADME, organism-based, Canis lupus familiaris; parameters: dose 1 mg/kg, route oral; settings: in vivo
[43] = biological target: Voltage-gated L-type calcium channel (Homo sapiens, UniProt Q13936+Q13698+Q01668+O60840); experiment: Inhibition of L-type calcium channel at 1 uM
[44] = biological target: Type-1 angiotensin II receptor (Homo sapiens) (UniProt P30556); experiment: Inhibition of AT1 receptor at 1 uM
Canis familiaris [45] = experiment: Effect on body weight in obese Beagle dog assessed as weight loss at 0.39 mg/kg, po after 3 months relative to control; assay type: functional, Canis lupus familiaris
[46] = Tmax in portal cannulated Beagle dog at 1 mg/kg, po; assay type: ADME, organism-based, Canis lupus familiaris; parameters: dose 1 mg/kg, route oral; settings: in vivo
[47] = Permeability from apical to basolateral side of the Caco-2 cell membrane at 10 uM in presence of calcium; assay type: ADME, cell-based; settings: human
[48] = biological target: Adenosine receptor A2a (Homo sapiens) (UniProt P29274); experiment: Inhibition of adenosine A2a receptor at 1 uM
Sequence of Adenosine receptor A2a (Homo sapiens) (P29274 whole entry): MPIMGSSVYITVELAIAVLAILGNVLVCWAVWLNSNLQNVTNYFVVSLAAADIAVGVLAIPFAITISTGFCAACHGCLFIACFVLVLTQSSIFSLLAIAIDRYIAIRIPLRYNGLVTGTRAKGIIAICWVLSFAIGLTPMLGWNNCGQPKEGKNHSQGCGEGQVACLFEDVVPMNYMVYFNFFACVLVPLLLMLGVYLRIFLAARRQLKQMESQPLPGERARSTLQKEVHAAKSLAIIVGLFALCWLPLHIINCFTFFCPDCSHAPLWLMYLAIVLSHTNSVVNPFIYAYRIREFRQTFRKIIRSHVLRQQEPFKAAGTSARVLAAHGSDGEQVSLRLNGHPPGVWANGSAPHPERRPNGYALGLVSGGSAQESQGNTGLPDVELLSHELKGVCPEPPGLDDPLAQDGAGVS

[49] = AUC (0 to infinity) in rat at 5 mg/kg, iv; assay type: ADME, organism-based; parameters: time infinity, dose 5 mg/kg, route intravenous; settings: plasma
[50] = AUC (0 to t) in rat at 1 mg/kg, iv; assay type: ADME, organism-based; parameters: dose 1 mg/kg, route intravenous; settings: plasma
Homo sapiens [51] = species on record: Homo sapiens; experiment: Inhibition of neuronal nicotinic receptor at 1 uM
Canis familiaris [52] = experiment: Increase in fecal fat in obese Beagle dog at 0.39 mg/kg, po after 3 months; assay type: functional, Canis lupus familiaris, Feces
[53] = biological target: D(3) dopamine receptor (Homo sapiens) (UniProt P35462); experiment: Inhibition of dopamine D3 receptor at 1 uM
Sequence of D(3) dopamine receptor (Homo sapiens) (P35462 whole entry): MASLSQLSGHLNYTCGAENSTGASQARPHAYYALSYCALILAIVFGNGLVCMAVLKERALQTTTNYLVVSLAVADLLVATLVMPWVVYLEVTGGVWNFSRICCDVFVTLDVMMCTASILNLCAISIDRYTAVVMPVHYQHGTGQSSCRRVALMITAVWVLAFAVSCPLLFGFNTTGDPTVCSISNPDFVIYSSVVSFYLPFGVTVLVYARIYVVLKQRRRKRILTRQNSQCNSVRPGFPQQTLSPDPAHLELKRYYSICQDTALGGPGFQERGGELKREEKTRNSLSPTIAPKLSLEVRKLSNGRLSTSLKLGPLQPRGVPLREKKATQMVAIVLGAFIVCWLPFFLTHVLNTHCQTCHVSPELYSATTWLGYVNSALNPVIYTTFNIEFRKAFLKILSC

[54] = biological target: Muscarinic acetylcholine receptor M1 (Homo sapiens) (UniProt P11229); experiment: Inhibition of muscarinic M1 receptor at 1 uM
Cytochrome P450 3A4 = Cytochrome P450 3A4 (Homo sapiens, UniProt P08684); experiment: Inhibition of CYP3A4; assay type: ADME
[55] = Bioavailability in rat at 3 mg/kg, po; assay type: ADME, organism-based; settings: in vivo
[56] = Cmax in Beagle dog at 5 mg/kg, po; assay type: ADME, organism-based, Canis lupus familiaris; parameters: dose 5 mg/kg, route oral; settings: in vivo
[57] = Plasma clearance in portal cannulated Beagle dog at 1 mg/kg, iv; assay type: ADME, organism-based, Canis lupus familiaris; parameters: dose 1 mg/kg, route intravenous
[58] = AUC (0 to t) in Beagle dog at 1 mg/kg, iv; assay type: ADME, organism-based, Canis lupus familiaris; parameters: dose 1 mg/kg, route intravenous; settings: plasma
Cytochrome P450 2C19 = Cytochrome P450 2C19 (Homo sapiens, UniProt P33261); experiment: Inhibition of CYP2C19; assay type: ADME

For `CN(Cc1ccccc1)C(=O)[C@@H](NC(=O)c1cc2cc(NC(=O)c3ccccc3-c3ccc(C(F)(F)F)cc3)ccc2n1C)c1ccccc1` [DIRLOTAPIDE], the half-life [1] was 6.3 h, the clearance [2] was 92 mL/min/kg and the AUC(0-t) [3] was 684 ng·h/mL. The bioavailability [4] was 2.3%, the Activity [5] was “inactive” and the clearance [6] was 4.7 mL/min/kg. For the same compound, the half-life [7] was 14 h, the Activity [8] was “inactive” and the Activity [9] was “inactive”. For the same compound, the CLint scaled [10] was 645 mL/min/kg, the half-life [11] was 2 h and the Activity (Homo sapiens [12]) was “inactive”. The Activity [13] was “inactive”, the IC50 [14] was 2.9 nM and the Activity [15] was “inactive”. For the same compound, the Activity [16] was “inactive”, the Vd [17] was 1 L/kg and the Activity [18] was “inactive”. For the same compound, the Activity (Homo sapiens [19]) was “inactive”, the AUC(0-inf) [20] was 1930 ng·h/mL and the blood plasma ratio [21] was 0.61. For the same compound, the Cmax [22] was 27 ng/mL, the AUC(0-inf) [23] was 289 ng·h/mL and the Activity [24] was “inactive”. The Activity [25] was “inactive”, the Activity (Homo sapiens [26]) was “inactive” and the half-life [27] was 6.3 h. The Activity [28] was “inactive”, the clearance [29] was 37 mL/min/kg and the Fu (Plasma) was 0.026%. For the same compound, the half-life [30] was 6.7 h, the AUC(0-inf) [31] was 379 ng·h/mL and the IC50 [32] was 1.5 nM. The CLint scaled [33] was 91 mL/min/kg, the Vd [34] was 2.2 L/kg and the IC50 (Cytochrome P450 1A2) was over 30000 nM. For the same compound, the Activity (Canis familiaris [35]) was 51%, the half-life [36] was 7.8 h and the half-life [37] was 6.8 h. For the same compound, the Cmax [38] was 4.7 ng/mL, the AUC(0-inf) [39] was 3610 ng·h/mL and the Activity (Homo sapiens [40]) was “inactive”. The CLint scaled [41] was 835 mL/min/kg, the Cmax [42] was 26.8 ng/mL and the Activity [43] was “Not Active”. The Activity [44] was “inactive”, the Activity (Canis familiaris [45]) was 18.8% and the Tmax [46] was 6.3 h. For the same compound, the Papp A→B at 10 µM [47] was 0.4 ×10⁻⁶ cm/s, the Activity [48] was “inactive” and the AUC(0-inf) [49] was 5890 ng·h/mL. The AUC(0-t) [50] was 485 ng·h/mL, the Activity (Homo sapiens [51]) was “inactive” and the Activity (Canis familiaris [52]) was 1.86%. For the same compound, the Activity [53] was “inactive”, the Activity [54] was “inactive” and the IC50 (Cytochrome P450 3A4) was over 30000 nM. For the same compound, the bioavailability [55] was 2.6%, the Cmax [56] was 250 ng/mL and the clearance [57] was 7.6 mL/min/kg. The AUC(0-t) [58] was 3260 ng·h/mL and the IC50 (Cytochrome P450 2C19) was over 30000 nM.
